Each block holds one compound with its values, some of them ahead of it.
Test: pH stability tests
Format: physicochemical
Description: This example provides the results of pH stability tests that were conducted on certain illustrative non-natural amino acids as an aid for predicting their properties for incorporation into non-natural amino acid polypeptides.

pH stability (pH 4.0, 1 hour): 4.0%
pH stability (pH 4.0, 1 day): <1%
pH stability (pH 4.0, 2 days): <1%
pH stability (pH 4.0, 3 days): <1%
pH stability (pH 4.0, 4 days): <1%
pH stability (pH 4.0, 5 days): <1%
pH stability (pH 4.0, 6 days): <1%
pH stability (pH 4.0, 7 days): <1%
pH stability (pH 4.0, 10 days): <1%
pH stability (pH 5.0, 1 hour): 5.0%
pH stability (pH 5.0, 1 day): <1%
pH stability (pH 5.0, 2 days): <1%
pH stability (pH 5.0, 3 days): <1%
pH stability (pH 5.0, 4 days): <1%
pH stability (pH 5.0, 5 days): <1%
pH stability (pH 5.0, 6 days): <1%
pH stability (pH 5.0, 7 days): <1%
pH stability (pH 5.0, 10 days): <1%
pH stability (pH 6.5, 1 hour): 6.5%
pH stability (pH 6.5, 1 day): <1%
pH stability (pH 6.5, 2 days): <1%
pH stability (pH 6.5, 3 days): <1%
pH stability (pH 6.5, 4 days): <1%
pH stability (pH 6.5, 5 days): <1%
pH stability (pH 6.5, 6 days): <1%
pH stability (pH 6.5, 7 days): <1%
pH stability (pH 6.5, 10 days): <1%
pH stability (pH 7.4, 1 hour): 7.4%
pH stability (pH 7.4, 1 day): <1%
pH stability (pH 7.4, 2 days): <1%
pH stability (pH 7.4, 3 days): <1%
pH stability (pH 7.4, 4 days): <1%
pH stability (pH 7.4, 5 days): <1%
pH stability (pH 7.4, 6 days): <1%
pH stability (pH 7.4, 7 days): <1%
pH stability (pH 7.4, 10 days): <1%
pH stability (pH 8.0, 1 hour): 8.0%
pH stability (pH 8.0, 1 day): <1%
pH stability (pH 8.0, 2 days): <1%
pH stability (pH 8.0, 3 days): <1%
pH stability (pH 8.0, 4 days): <1%
pH stability (pH 8.0, 5 days): <1%
pH stability (pH 8.0, 6 days): <1%
pH stability (pH 8.0, 7 days): <1%
pH stability (pH 8.0, 10 days): <1%
SMILES: COCCOCNCCO/N=C(\C)CC(=O)c1ccccc1 [drawing 139]

pH stability (pH 4.0, 1 hour): 5%
pH stability (pH 4.0, 1 day): 7%
pH stability (pH 4.0, 2 days): 8%
pH stability (pH 4.0, 3 days): 10%
pH stability (pH 4.0, 4 days): 11%
pH stability (pH 4.0, 5 days): 11%
pH stability (pH 4.0, 6 days): 11%
pH stability (pH 4.0, 7 days): 11%
pH stability (pH 4.0, 10 days): 11%
pH stability (pH 5.0, 1 hour): <1%
pH stability (pH 5.0, 1 day): 3%
pH stability (pH 5.0, 2 days): 3%
pH stability (pH 5.0, 3 days): 5%
pH stability (pH 5.0, 4 days): 7%
pH stability (pH 5.0, 5 days): 7%
pH stability (pH 5.0, 6 days): 7%
pH stability (pH 5.0, 7 days): 8%
pH stability (pH 5.0, 10 days): 8%
pH stability (pH 6.5, 1 hour): <1%
pH stability (pH 6.5, 1 day): <1%
pH stability (pH 6.5, 2 days): <1%
pH stability (pH 6.5, 3 days): 2%
pH stability (pH 6.5, 4 days): 2%
pH stability (pH 6.5, 5 days): 2%
pH stability (pH 6.5, 6 days): 2%
pH stability (pH 6.5, 7 days): 2%
pH stability (pH 6.5, 10 days): 2%
pH stability (pH 7.4, 1 hour): <1%
pH stability (pH 7.4, 1 day): <1%
pH stability (pH 7.4, 2 days): <1%
pH stability (pH 7.4, 3 days): <1%
pH stability (pH 7.4, 4 days): <1%
pH stability (pH 7.4, 5 days): <1%
pH stability (pH 7.4, 6 days): <1%
pH stability (pH 7.4, 7 days): <1%
pH stability (pH 7.4, 10 days): <1%
pH stability (pH 8.0, 1 hour): 9%
pH stability (pH 8.0, 1 day): 24%
pH stability (pH 8.0, 2 days): 30%
pH stability (pH 8.0, 3 days): 30%
pH stability (pH 8.0, 4 days): 30%
pH stability (pH 8.0, 5 days): 30%
pH stability (pH 8.0, 6 days): 30%
pH stability (pH 8.0, 7 days): 33%
pH stability (pH 8.0, 10 days): 34%
SMILES: COCCOC(=O)NCCO/N=C(\C)CNC(=O)c1ccccc1

pH stability (pH 4.0, 1 hour): <1%
pH stability (pH 4.0, 1 day): <1%
pH stability (pH 4.0, 2 days): <1%
pH stability (pH 4.0, 3 days): <1%
pH stability (pH 4.0, 4 days): <1%
pH stability (pH 4.0, 5 days): <1%
pH stability (pH 4.0, 6 days): <1%
pH stability (pH 4.0, 7 days): <1%
pH stability (pH 4.0, 10 days): <1%
pH stability (pH 5.0, 1 hour): <1%
pH stability (pH 5.0, 1 day): <1%
pH stability (pH 5.0, 2 days): <1%
pH stability (pH 5.0, 3 days): <1%
pH stability (pH 5.0, 4 days): <1%
pH stability (pH 5.0, 5 days): <1%
pH stability (pH 5.0, 6 days): <1%
pH stability (pH 5.0, 7 days): <1%
pH stability (pH 5.0, 10 days): <1%
pH stability (pH 6.5, 1 hour): <1%
pH stability (pH 6.5, 1 day): <1%
pH stability (pH 6.5, 2 days): <1%
pH stability (pH 6.5, 3 days): <1%
pH stability (pH 6.5, 4 days): <1%
pH stability (pH 6.5, 5 days): <1%
pH stability (pH 6.5, 6 days): <1%
pH stability (pH 6.5, 7 days): <1%
pH stability (pH 6.5, 10 days): <1%
pH stability (pH 7.4, 1 hour): <1%
pH stability (pH 7.4, 1 day): <1%
pH stability (pH 7.4, 2 days): <1%
pH stability (pH 7.4, 3 days): <1%
pH stability (pH 7.4, 4 days): <1%
pH stability (pH 7.4, 5 days): <1%
pH stability (pH 7.4, 6 days): <1%
pH stability (pH 7.4, 7 days): <1%
pH stability (pH 7.4, 10 days): <1%
pH stability (pH 8.0, 1 hour): <1%
pH stability (pH 8.0, 1 day): <1%
pH stability (pH 8.0, 2 days): <1%
pH stability (pH 8.0, 3 days): <1%
pH stability (pH 8.0, 4 days): <1%
pH stability (pH 8.0, 5 days): <1%
pH stability (pH 8.0, 6 days): <1%
pH stability (pH 8.0, 7 days): <1%
pH stability (pH 8.0, 10 days): <1%
SMILES: COCCOC(=O)NCCO/N=C1\C(=O)Nc2ccccc21

pH stability (pH 4.0, 1 hour): <1%
pH stability (pH 4.0, 1 day): <1%
pH stability (pH 4.0, 2 days): <1%
pH stability (pH 4.0, 3 days): <1%
pH stability (pH 4.0, 4 days): <1%
pH stability (pH 4.0, 5 days): <1%
pH stability (pH 4.0, 6 days): <1%
pH stability (pH 4.0, 7 days): <1%
pH stability (pH 4.0, 10 days): <1%
pH stability (pH 5.0, 1 hour): <1%
pH stability (pH 5.0, 1 day): <1%
pH stability (pH 5.0, 2 days): <1%
pH stability (pH 5.0, 3 days): <1%
pH stability (pH 5.0, 4 days): <1%
pH stability (pH 5.0, 5 days): <1%
pH stability (pH 5.0, 6 days): <1%
pH stability (pH 5.0, 7 days): <1%
pH stability (pH 5.0, 10 days): <1%
pH stability (pH 6.5, 1 hour): <1%
pH stability (pH 6.5, 1 day): <1%
pH stability (pH 6.5, 2 days): <1%
pH stability (pH 6.5, 3 days): <1%
pH stability (pH 6.5, 4 days): <1%
pH stability (pH 6.5, 5 days): <1%
pH stability (pH 6.5, 6 days): <1%
pH stability (pH 6.5, 7 days): <1%
pH stability (pH 6.5, 10 days): <1%
pH stability (pH 7.4, 1 hour): <1%
pH stability (pH 7.4, 1 day): <1%
pH stability (pH 7.4, 2 days): <1%
pH stability (pH 7.4, 3 days): <1%
pH stability (pH 7.4, 4 days): <1%
pH stability (pH 7.4, 5 days): <1%
pH stability (pH 7.4, 6 days): <1%
pH stability (pH 7.4, 7 days): <1%
pH stability (pH 7.4, 10 days): <1%
pH stability (pH 8.0, 1 hour): <1%
pH stability (pH 8.0, 1 day): <1%
pH stability (pH 8.0, 2 days): <1%
pH stability (pH 8.0, 3 days): <1%
pH stability (pH 8.0, 4 days): <1%
pH stability (pH 8.0, 5 days): <1%
pH stability (pH 8.0, 6 days): <1%
pH stability (pH 8.0, 7 days): <1%
pH stability (pH 8.0, 10 days): <1%
SMILES: COCCOC(=O)NCCO/N=C(\C)C(=O)c1ccccc1

pH stability (pH 4.0, 1 hour): <1%
pH stability (pH 4.0, 1 day): <1%
pH stability (pH 4.0, 2 days): <1%
pH stability (pH 4.0, 3 days): <1%
pH stability (pH 4.0, 4 days): <1%
pH stability (pH 4.0, 5 days): <1%
pH stability (pH 4.0, 6 days): 2%
pH stability (pH 4.0, 7 days): 2%
pH stability (pH 4.0, 10 days): 3%
pH stability (pH 5.0, 1 hour): <1%
pH stability (pH 5.0, 1 day): <1%
pH stability (pH 5.0, 2 days): <1%
pH stability (pH 5.0, 3 days): <1%
pH stability (pH 5.0, 4 days): <1%
pH stability (pH 5.0, 5 days): <1%
pH stability (pH 5.0, 6 days): <1%
pH stability (pH 5.0, 7 days): <1%
pH stability (pH 5.0, 10 days): <1%
pH stability (pH 6.5, 1 hour): <1%
pH stability (pH 6.5, 1 day): <1%
pH stability (pH 6.5, 2 days): <1%
pH stability (pH 6.5, 3 days): <1%
pH stability (pH 6.5, 4 days): <1%
pH stability (pH 6.5, 5 days): <1%
pH stability (pH 6.5, 6 days): <1%
pH stability (pH 6.5, 7 days): <1%
pH stability (pH 6.5, 10 days): <1%
pH stability (pH 7.4, 1 hour): <1%
pH stability (pH 7.4, 1 day): <1%
pH stability (pH 7.4, 2 days): <1%
pH stability (pH 7.4, 3 days): <1%
pH stability (pH 7.4, 4 days): <1%
pH stability (pH 7.4, 5 days): 3%
pH stability (pH 7.4, 6 days): 4%
pH stability (pH 7.4, 7 days): 7%
pH stability (pH 7.4, 10 days): 11%
pH stability (pH 8.0, 1 hour): <1%
pH stability (pH 8.0, 1 day): <1%
pH stability (pH 8.0, 2 days): <1%
pH stability (pH 8.0, 3 days): <1%
pH stability (pH 8.0, 4 days): <1%
pH stability (pH 8.0, 5 days): <1%
pH stability (pH 8.0, 6 days): <1%
pH stability (pH 8.0, 7 days): <1%
pH stability (pH 8.0, 10 days): <1%
SMILES: COCCOCNCCO/N=C(\C)CC(=O)c1ccccc1 [drawing 135]

Source: US8008456B2, “Compositions containing, methods involving, and uses of non-natural amino acids and polypeptides” (Ambrx, Inc., priority 2004, dated 2011)
